Where two headings read alike, the source gives them in different places.

Results on 2 molecules are retold here after PMC6072878, “Brasilianoids A–F, New Meroterpenoids From the Sponge-Associated Fungus Penicillium brasilianum” (Frontiers in Chemistry, 2018).

The nature of data set [1]: Cytotoxic activity toward tumor cell line A549. The data set is classed as cell-based. Conditions: human, A549 tumor cells.
A short description of data set [2]: Cytotoxic activity toward tumor cell line U937. It counts as cell-based. The following applies: human, U937 tumor cells.
The nature of data set [3]: Cytotoxic activity toward tumor cell line SMMC7721. The data set is classed as cell-based. The following applies: human, SMMC7721 tumor cells.
The subject of the next data set is filaggrin. The data set is described as follows: Expression of filaggrin in HaCaT cells (qRT-PCR). It counts as cell-based. The following applies: HaCaT cells, 20, 10, 5 μM, 72 h, dose dependent. As for the experimental part:
(§1) HaCaT cells were cultured with DMEM in 6-well plate at 1 × 10^5 cells/well for 24 h, then treated with 20, 10, 5 μM of compounds 1–7 for 72 h. Total RNA of HaCaT cells were extracted using RNA Miniprep kit (Biomiga) according to the manufacturer's instruction. Then total RNA was reverse transcribed using PrimeScript RT reagent Kit (Takara, Dalian, China). PCR amplification was performed on an StepOne Plus real time PCR system (Applied Biosystems, Foster City, CA) using the SYBR Green Master Mix (Applied Biosystems, Foster City, CA). All experiments were performed in triplicate, and the relative levels of assayed mRNAs were calculated with the delta–delta CT method using ACTIN expressions as endogenous control, and normalized to non-treated control. […]
(§2) delta‒delta CT method using lamivudine expressions as positive control, and normalized to non-treated control.
(§3) 9. Assay for protective effects on skin barrier functions in in vitro
(§4) HaCaT cells were cultured with DMEM in 6-well plate at 1×10^5 cells/well for 24 h, then treated with 20, 10, 5 µM of compounds 1‒8 for 72 h. […]
(§5) All experiments were performed in triplicate, and the relative levels of assayed mRNAs were calculated with the delta‒delta CT method using ACTIN expressions as endogenous control, and normalized to non-treated control.
Background: Real-time PCR tracks product formation cycle by cycle.

The test system of another data set is caspase-14. The data set is described as follows: Expression of caspase-14 in HaCaT cells (qRT-PCR). The data set is classed as cell-based. Conditions: HaCaT cells, 20, 10, 5 μM, 72 h, dose dependent. As for the experimental part:
as §1, §2, §3, §4, §5

For a further data set, the system named is HaCaT cells. The data set is described as follows: Protection against UVB-induced cell damage in HaCaT cells (MTT assay). The data set is classed as cell-based. Conditions: Homo sapiens, HaCaT, light or radiation study, 24 h, read-out: cell viability after UVB irradiation. As for the experimental part: HaCaT cells were seeded at 5 × 10^5 cells per well in 6-well plates and incubated under starvation conditions for 24 h using serum-free MEM. HaCaT cells were exposed to UVB irradiation (UVB lamp: SUV-1000, Sigma-China) at a dose of 30 mJ/cm^2. After UVB irradiation, DMEM medium containing 1 (20 μM) or epigallocatechin gallate (20 μM) was added and the cells were incubated for 24 h, and then the MTT assay was performed.
On the technique in general: Formazan colour is commonly taken as a measure of viable cells.

Data set [4] deals with NO production in LPS-induced RAW 264.7 macrophages. The data set is described as follows: Inhibition of LPS induced NO production in RAW264.7 macrophages (Griess reagent). It counts as cell-based, mouse. Here is the method:
All compounds were assayed by measuring the inhibitory effects on NO production induced by LPS in mouse macrophage RAW 264.7 cells. The RAW 264.7 cells were seeded in each well of a 96-well plate at a concentration of 5 × 10^5 cells/ml in DMEM medium containing 10% fetal bovine serum, 2 mmol/l glutamine, 100 U/ml penicillin, and 100 μg/ml streptomycin. After incubation at 37°C in a humidified atmosphere of 5% CO2 air for 12 h, cells were treated with LPS (1 μg/ml) and compounds ([…], and compound was dissolved in DMSO to dilute until the final DMSO concentration <0.1%, v/v), then incubation for 24 h at 37°C. NO production was determined by measuring the quantity of nitrite in the culture medium by the Griess reagent. Aminoguanidine was selected as a positive control. A 50 μl of the supernatant of culture medium was mixed with 100 μl of the Griess reagent. Using nitrite to generate a standard curve, nitrite production was measured by a microplate reader at 540 nm. Cell viability was examined by the MTT method (Wu et al., [2016]). The compounds with inhibitory rate more than 50% at a dose of 50 μg/ml were further detected in the gradient concentrations to calculate IC50 values. […]
(§6) 7. Assay for inhibition toward nitric oxide production in RAW264.7 macrophages The experiment was conducted according to a literature procedure.1 Murine monocytic RAW264.7 cells grown in 96-well cell culture plates (2 × 10^5 cells/well) and pretreated with serial concentrations of the compounds 1‒8 for 30 min, followed by stimulation with LPS (1 μg/mL) under a humidified atmosphere with 5% CO2 at 37°C. After 24 h, the NO production of the supernatant was determined by adding the 100 μL of Griess reagent. Subsequently, the MTT
(§7) [3-(4,5-dimethylthiazol-2-yl)-2,5-diphenyltetrazolium bromide] reduction2 was used to evaluate the cell viability, and results were expressed as the mean value of triplicate determinations. The positive control was aminoguanidine.2 […]
Background: Griess reagent forms a coloured azo dye with nitrite.

Data set [5] can be described thus: Cell viability of RAW264.7 macrophages (MTT method). It counts as cell-based, mouse. The following applies: mouse. Here is the method: as §6, §7
The test system of a further data set is RAW264.7 macrophages. The description is as above. The following applies: RAW264.7, MTT; Table 3; read-out: CC50 (μM) Cytotoxicity. The data set is classed as cell-based, mouse. As for the experimental part: as §6, §7
Data set [6] relates to HBV virus in HepG2.2.15 cells. The data set is described as follows: In vitro anti-HBV effects (HBV DNA, real time PCR). It counts as cell-based. The following applies: 10 μM. As for the experimental part: HepAD38 cells were cultured with DMEM in 48-well plate at 1 × 10^5 cells/well for 24 h, then treated with 10 μM of each compound for 72 h. After 4 days, the cells were washed with precooled PBS for 2 times. HBV progeny DNA of HepAD38 cells were extracted using QIAamp DNA Blood Mini kit (Biomiga) according to the manufacturer's instruction. Total DNA was reversely transcribed using PrimeScript RT reagent Kit (Takara, Dalian, China). PCR amplification was performed on an StepOne Plus real time PCR system (Applied Biosystems, Foster City, CA) using the SYBR Green Master Mix (Applied Biosystems, Foster City, CA). All experiments were performed in triplicate, and the relative levels of assayed HBV DNA were calculated with the delta–delta CT method using lamivudine as a positive control, and normalized to non-treated control. […]
8. Assay for in vitro anti-HBV effects
HepG2. 2. 15 cells were cultured with DMEM in 48-well plate at 1×10^5 cells/well for 24 h, then treated with 10 µM of compounds for 72 h. At d 4, these cells were washed 2 times with precooled PBS, and treated with 10 µM of compounds for 72 h.
HBV progeny DNA of HepG2. 2. 15 cells were extracted using QIAamp DNA Blood Mini kit (Biomiga) according to the manufacturer's instruction. Then total DNA was reverse transcribed using PrimeScript RT reagent Kit (Takara, Dalian, China). The primers were designed and synthesized by Takara, and the sequences of the primers […]
PCR amplification was performed on an StepOne Plus real time PCR system (Applied Biosystems, Foster City, CA) using the SYBR Green Master Mix (Applied Biosystems, Foster City, CA). All experiments were performed in triplicate, and the relative levels of assayed HBV DNA were calculated with the […]
delta‒delta CT method using lamivudine expressions as positive control, and normalized to non-treated control. […]
(Takara, Dalian, China). The primers were designed and synthesized by Takara, the […]
performed on an StepOne Plus real time PCR system (Applied Biosystems, Foster City, CA) using the SYBR Green Master Mix (Applied Biosystems, Foster City, CA). […]

As a reminder, the viability is a read-out of living cells in per cent, often relative to untreated cells. Turning to `C=C1[C@@]2(C)C[C@H]3[C@]4(C)[C@H](O)[C@@H]5C[C@@](C)(OC5=O)[C@H]4CC[C@]3(C)[C@]1(C(=O)OC)C(=O)[C@@](C)(O)C2=O` [Compound 1, methyl (1R, 2S, 5R, 5aS, 7aS, 8R, 10S, 12R, 13aR, 13bS)-1, 10-dihydroxy-5,7a,10,12,13b-pentamethyl-14-methylene-3,9,11-trioxotetradecahydro-2,5:8,12-dimethanocycloocta[3,4]benzo[1,2-c]oxepine-8(5H)-carboxylate], the IC50 was greater than 10 µM in data set [1]; greater than 10 µM in [2]; greater than 10 µM in [3]; greater than 5e-05 M in data set [4] (Mus musculus, RAW264.7, read-out: IC50 (M), 50% inhibitory concentration). For the same molecule, the expression of filaggrin result in the data set with filaggrin is listed as “significantly stimulated”. The “expression of caspase-14” value with caspase-14 is reported as “significantly stimulated”. The viability at 20 µM with HaCaT cells was 77%. Also, the CC50 at 24 h in data set [5] (RAW264.7, MTT, Table 3, read-out: CC50 (μM) Cytotoxicity) was greater than 100 µM; in data set [5] (Table S9 of the supplement, read-out: CC50 (M), 50% cytotoxic concentration), greater than 50 µM.

Consider `C=C1C2(C)CC3C4(C)C=CC(=O)OC(C)(C)C4CCC3(C)C13C(=O)OC(C)C3(O)C2=O` [Compound 3, (5aS, 5bS, 7R, 8aR, 9R, 11aR, 11bS, 13aS)-8a-hydroxy-1,1,5a, 7,9,11b-hexamethyl-14-methylene-5a,5b,6,7,8a,9,11b,12,13,13a-decahydro-1H,11H-7, 11a-methanofuro[3″,4″:3′,4′]cyclohepta[1′,2′:3,4]benzo[1,2-c]oxepine-3,8,11-trione], for which the “NO inhibition % (50 μM)” value in data set [4] (50 μM, LPS 1 μg/ml, 24 h) stood at 65%. In [4] (LPS 1 μg/ml, 24 h, Table 3, read-out: IC50 (μM) NO), the IC50 was 3.38e-05 ± 3.13e-06 M. Besides, the “inhibition toward NO production (in words)” value in data set [4] (LPS-induced RAW 264.7 macrophages) was “moderate inhibition”. The CC50 in the data set on RAW264.7 macrophages is greater than 100 µM. In data set [6], the “inhibitory rate of DNA expression of the HBV virus” value is given as 25%.
